# Where two headings read alike, the source gives them in different places.
# B1: P20.1 Ab: monoclonal antibody produced by mouse-mouse hybridoma P20.1 (FERM BP-11061), IgG1 isotype, λ light chains, against N-terminal 20 residues of human PAR4 (antibody, V domains shown)
# VH: QIQLVQSGPEVQKPGETVRISCKASGYTFTTAGMQWVQKMPGKSLKWIGWINTRSGVPKYAEDFKGRFAFSLETSASIAYLHINNLKNEDTATYFCAREGPGFVYWGQGTLVTVSA
# VL: QTVVTQESALTTSPGETVTLTCRSSTGVVTTSNYANWVQEKPDHLFTGLIVGTNNRVPGVPPRFSGSLIGDKAALTITGAQTEDEAIYFCALWYSNHWVFGGGTKLTVL
# Legend:
# [1] = system: P20.1 antibody; assay: Epitope analysis by ELISA with P4-Fn proteins and Ala mutants; format: binding, mouse; conditions: coated Fn fusion protein 10 μg/mL, P20.1 antibody 2 to 5 μg/mL, absorbance 405 nm
# Experimental: The minimum peptide sequence required for recognition by the P20.1 antibody was identified by the ELISA method using various kinds of P4-Fn proteins prepared in the above (2-1). The protocol is as follows.
# (1) A P4-Fn (or a mutant thereof) solution diluted at 10 μg/mL was added at 50 μL/well to 96-well plates, which were then allowed to stand (4° C., 16 hours).
# (2) The supernatant of each well was removed with an aspirator, a 1% BSA solution in Tris-buffered saline (TBS; 20 mM Tris-HCl, 150 mM NaCl, pH 7.5) was added at 200 μL/well, and the plates were allowed to stand at room temperature for 1 hour.
# (3) A P20.1 antibody solution (2 to 5 μg/mL) was added at 50 μL/well and the plates were allowed to stand at room temperature for 1 hour.
# (4) Each well was washed with 200 μL of TBS 3 times.
# (5) A peroxidase-labeled anti-mouse IgG (1/1000 dilution) was added at 50 μL/well, and the plates were allowed to stand at room temperature for 30 minutes.
# (6) Each well was washed with 200 μL of TBS 4 times.
# (7) A peroxidase chromogenic substrate (ABTS) was added at 100 μL/well, the plates were allowed to stand at room temperature for 5 to 10 minute, and then the absorbance of the solution in each well was measured at 405 nm.
# The ELISA results of 5 different tag peptide fusion proteins having the P4 peptide attached to the N terminus of the Fn are shown in FIG. 5. […]
# [2] = system: P4×3-tagged hGH fusion protein bound to P20.1 antibody-Sepharose; assay: Elution of P4×3-tagged hGH fusion protein from P20.1 antibody-Sepharose; conditions: in TBS, room temperature, 10 minutes
# Experimental: With 8 mL of the culture supernatant of cells expressing the P4×3-tagged hGH fusion protein, 100 μL of the P20.1 antibody-Sepharose (0.2 mg in terms of the P20.1 antibody, bead form) was mixed, and then the mixture was allowed to react at 4° C. for 3 hours. After the reaction, the beads were washed with 3 mL of Tris-buffered saline (TBS; 20 mM Tris-HCl, 150 mM NaCl, pH 7.5), and 300 μL of an eluent as shown below was added to and mixed with the beads at room temperature for 10 minutes. The effluent obtained by each eluent was concentrated and then was subjected to SDS gel electrophoresis at an equal amount. For comparison, affinity binding was also performed using Ni-NTA beads on the same conditions as above, and the effluent obtained by use of imidazole as an eluent was analyzed simultaneously.
# The above-mentioned numbers correspond to the lane numbers in FIG. 23 (a). “Ni” indicates the effluent from Ni-NTA beads. As shown in FIG. 23 (a), the tagged fusion protein which was bound to the P20.1 antibody-Sepharose was not only eluted with 0.1 mg/mL or more of the P4(C8) peptide, but also completely eluted by combined use of propylene glycol and sodium chloride. […]
# [3] = system: P4(20)-Fn protein-P20.1 antibody binding; assay: Competitive dissociation by peptide (ELISA); conditions: peptide concentration of 0.1 mg/mL, 30 minutes
# Experimental: For examination on whether an excess of free peptides can disrupt protein-P20.1 antibody binding, at the final washing step of the (3-1) ELISA experiment using the P4(20)-Fn protein, buffer solutions containing different concentrations of the P4(C8) peptide (8-residue peptide PRGYPGQV (SEQ ID NO: 20) synthesized by the Fmoc method) were added to wells and the plates were allowed to stand for 30 minutes.
# [4] = system: P20.1 antibody; assay: Kinetics analysis by surface plasmon resonance, P4 sequence repeats over P20.1 antibody-immobilized sensor chip; format: binding, mouse; conditions: hGH-γC fusion proteins, flow rate 20 μL/min, Biacore X-100
# Experimental: For improvement of the efficacious affinity for the P20.1 antibody, tag peptide fusion proteins having a repeated sequence, specifically 1, 3 or 5 repeats of the P4 sequence (referred to as P4×1, P4×3 or P4×5, in the above order) were prepared (see the above (2-2)). These proteins were allowed to separately pass at a flow rate of 20 μL/min over the P20.1 antibody-immobilized sensor chip, and kinetics analysis was conducted using Biacore X-100 (GE Healthcare).
# [5] = system: P20.1 antibody; assay: Sandwich ELISA, P20.1 antibody as detection antibody; format: binding, mouse; conditions: diluted cell supernatant, biotinylated P20.1 antibody 5 μg/mL, absorbance 405 nm
# Experimental: The anti-hGH monoclonal antibody HGH-B was immobilized to microtiter plates. After blocking, the supernatant of cells transiently expressing the hGH-γC-P4 fusion protein having P4×1, P4×3 or P4×5 linked thereto (see FIG. 3, FIG. 4 and SEQ ID NO: 15) was added at various dilution ratios to wells of the plates, which were then allowed to stand at 4° C. overnight. In this way, such a fusion protein was captured by the antibody on the plates. After washing, a biotinylated P20.1 antibody (5 μg/mL) was allowed to react with the fusion protein at room temperature for 30 minutes. After 3-time washing, peroxidase-labeled streptavidin (Zymed) was added to the plates, which were then allowed to stand at room temperature for additional 15 minutes. After addition of peroxidase substrate (ABTS), the absorbance at 405 nm was measured.
# [6] = system: P20.1 antibody-Sepharose; assay: Pull-down efficiency with P20.1 antibody-immobilized beads; format: binding, mouse; conditions: pull-down by P20.1 antibody-Sepharose
# Experimental: Three different hGH-γC-P4 fusion proteins, which have P4×1, P4×3 or P4×5, were separately expressed in HEK293T cells. The fusion protein in the separate cell culture supernatant was quantified by the sandwich ELISA (which adopts a system of hGH antibody-mediated capture+anti-BAS serum-mediated detection, and is not dependent on the responsiveness to the P20.1 antibody) (before pull-down). Aside from this, to 1 mL of the cell culture supernatant, 20 μL of the P20.1 antibody-Sepharose (bead form) was added, and then the mixture was allowed to react at 4° C. for 1 hour. After the beads were precipitated by centrifugation, the fusion protein in the supernatant was quantified by the sandwich ELISA (which adopts a system of hGH antibody-mediated capture+anti-BAS serum-mediated detection, and is not dependent on the responsiveness to the P20.1 antibody) (after pull-down). The fusion protein purified with Ni-NTA agarose was used as a standard, and based on the standard curve, the fusion protein concentrations before and after pull-down by the P20.1 antibody were determined. As is clear from Table 4, 3 to 5 repeats of the P4 sequence achieves the binding efficiency of about 80%.
# [7] = Phage display random screening of the peptide sequence recognizable by the P20.1 antibody; format: binding; conditions: panning with P20.1 antibody-immobilized magnetic beads
# Description: For extensive search for the peptide sequence recognizable by the P20.1 antibody, the phage display method was employed. The phagemid shown in FIG. 11 was constructed for insertion of the randomized 7-amino-acid peptide library (all of them have Tyr2 and Gln5 in common) into the N terminus of the gIII coat protein of M13 phage. As a result, the phage library of 10^7 members was obtained.
# Through panning by use of P20.1 antibody-immobilized magnetic beads, a number of clones bound to the beads were obtained. The sequence of the variable region in these different clones was decoded by DNA sequencing, and the sequence pattern as shown in FIG. 12 was obtained. […] Namely, it can be said that the P20.1 antibody generally has a high affinity for the following peptide sequence: X1-Tyr2-Pro3-Gly4-Gln5-X6: SEQ ID NO:21 (wherein X1 is any amino acid residue; Pro3 may be an amino acid having a small side chain, such as S, V, C, A, T, E, G and D; and X6 is any hydrophobic amino acid). X-Ray Crystallography of the P20.1 Antibody Fab Fragment-Peptide Complex (5-1) Amino Acid Sequencing of the P20.1 Antibody Variable Region DNA Cloning from Hybridoma
# [8] = biological target: T1, P4(20)-Fn (Homo sapiens, UniProt P02751); assay: Surface plasmon resonance analysis (Biacore): binding affinity of P20.1 antibody for P4 peptide sequence
# T1 construct: the 9th to 10th region of the Fn3 domain of human fibronectin (185 residues); made in house; host or cells: pET11c vector
# Experimental: For examination on the binding affinity of the P20.1 antibody for the P4 peptide sequence, the surface plasmon resonance analysis using Biacore was performed. After the P4(20)-Fn (see FIG. 1) purified in the (2-1) was biotinylated and then captured by a streptavidin-immobilized sensor chip, a purified P20.1 antibody was allowed to flow over the prepared sensor chip at various concentrations. […] Similarly, a commercially available Flag ([…] (SEQ ID NO: 19)) and corresponding antibody M2 were used for examination on the affinity of M2 for Flag-tagged Fn (Flag-Fn).
# [9] = P20.1 antibody flowed over biotinylated P4(20)-Fn captured on streptavidin sensor chip
molecule,measurement,setting,value
GGDDSTPSILPAPRGYPGQVC [P4 peptide],recognition by / responsiveness to the P20.1 antibody,[1],can be recognized by the P20.1 antibody
PRGYPGQV [P4(C8) peptide],peptide concentration that eluted the tagged fusion protein,[2],≥ 0.1 mg/mL
same,dissociation of protein-P20.1 antibody binding by free peptide,[3],almost complete dissociation
P4 × 5: hGH/fibrinogen γC fusion protein tagged with 5 repeats of the P4 sequence GYPGQV,affinity / binding capacity for the P20.1 antibody,[4],further increased binding capacity
same,signals in sandwich ELISA,[5],dose-dependent signals were observed in 30-fold or less diluted supernatant
same,Binding efficiency,[6],80%
P4 × 3: hGH/fibrinogen γC fusion protein tagged with 3 repeats of the P4 sequence GYPGQV,signals in sandwich ELISA,[5],dose-dependent signals were observed in 30-fold or less diluted supernatant
same,Binding efficiency,[6],78%
P4: hGH/fibrinogen γC fusion protein tagged with 1 repeat of the P4 sequence GYPGQV,affinity / binding capacity for the P20.1 antibody,[4],extremely weak affinity
same,signals in sandwich ELISA,[5],only weak signals were detected in 3-fold or less diluted supernatant
same,Binding efficiency,[6],14%
GYPGQV [P4 sequence],recognition by / responsiveness to the P20.1 antibody,[1],enough for recognition by the P20.1 antibody
B1,peptide sequence required for recognition,[7],"requires the presence of tyrosine, glycine and glutamine at position 2, 4 and 5"
same,Ka,[8]; [9],365000 M⁻¹ s⁻¹
same,Kd(1/s),[8]; [9],0.00123 s⁻¹
same,Kd,"[8]; P20.1 antibody flowed over biotinylated P4(20)-Fn captured on streptavidin sensor chip, read-out: KD",3.38 nM
same,Kd,"[8]; affinity for the P4(20)-Fn, read-out: apparent dissociation equilibrium constant (Kd)",~3.4 nM
